These results are taken from patent publication US12648983B2 (U.S. NUTRACEUTICALS, INC., priority 2021, dated 2026).

One assay addresses T1, 5α-Reductase Type 2 (Homo sapiens, UniProt P31213).
T1 sequence (P31213 1-254): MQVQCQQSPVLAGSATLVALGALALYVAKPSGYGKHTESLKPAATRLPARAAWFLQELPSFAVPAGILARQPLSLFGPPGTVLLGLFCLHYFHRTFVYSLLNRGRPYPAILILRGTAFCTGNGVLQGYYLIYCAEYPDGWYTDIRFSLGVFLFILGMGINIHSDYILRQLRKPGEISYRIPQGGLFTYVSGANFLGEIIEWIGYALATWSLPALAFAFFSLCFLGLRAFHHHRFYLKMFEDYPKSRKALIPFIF
Kind of assay: inhibition of 5α-Reductase Type 2 enzyme (Inhibition Experiments 1 and 2). Format: biochemical. From the text:
(§1) The different free fatty acids of medium and long saturated chains and long unsaturated chains are shown, together with esterified fatty acids, oxidized fatty acids, fatty alcohols, phytosterols, and other components. The magnitude of the activity is designated by “none,” “moderate” or “very active” (FIG. 3). The various constituents shown in the table of FIG. 2 are also shown and listed as free fatty acid molecules with: a) medium, saturated chains, b) long, saturated chains, and c) long unsaturated chains. There are esterified fatty acids, oxidized fatty acids, and fatty alcohols. These tables support other evidence that the five active free fatty acids for prostate and hair health are lauric, myristic, oleic, linoleic and linolenic free fatty acids.
Data are shown in the graphs and bar charts of FIGS. 5 and 6 where data are reported as the effectiveness to inhibit enzyme activity (IC50). […]
Inhibition Experiment 2 shown in FIG. 6 determined the possible impact of Permixon® product matrix (PEG) on an in vitro assay and the pegylated and conventional ultra-high purity supercritical CO2 extract having the PEG matrix (U4602-PEG) was compared to the commercially available Permixon® and the conventional unpegylated product (U4602) for their ability to inhibit the 5α-Reductase 2 enzyme. […]

A further assay deals with T2, 5α-Reductase Type 1 (Homo sapiens, UniProt P18405).
T2 sequence (P18405 1-259): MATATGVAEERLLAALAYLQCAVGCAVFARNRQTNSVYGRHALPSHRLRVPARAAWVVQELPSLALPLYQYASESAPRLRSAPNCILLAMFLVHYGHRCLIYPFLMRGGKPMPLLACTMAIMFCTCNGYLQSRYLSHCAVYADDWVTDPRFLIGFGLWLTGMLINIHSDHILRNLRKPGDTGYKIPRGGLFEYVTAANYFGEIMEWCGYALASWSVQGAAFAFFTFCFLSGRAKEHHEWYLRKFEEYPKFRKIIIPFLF
Kind of assay: inhibition of 5α-Reductase Type 1 enzyme. The class given is biochemical.
Description: as §1
Reference is now made to FIGS. 7B and 7C showing the use of a supercritical CO2 extracted LSESr and Permixon®.

A further assay concerns hair growth. As to conditions: normal shaved mice, after about 20 days; cited from earlier work.
In a further assay the test system is androgenic alopecia. As to conditions: 1 milligram per day, 24 months, 100 men; cited from earlier work.

Consider `CCCCCCCC/C=C\CCCCCCCC(=O)O` [oleic acid], for which the “effectiveness for 5α-Reductase-2 (in words)” value on 5α-Reductase Type 2 is listed as “not as much”. Moreover, the “effectiveness for 5α-Reductase-1 (in words)” value at 5α-Reductase Type 1 is given as “especially effective”.

Consider `CCCCC/C=C\C/C=C\CCCCCCCC(=O)O` [linoleic acid], for which the “effectiveness for 5α-Reductase-2 (in words)” value on 5α-Reductase Type 2 is “beneficial for both”. For the same compound, the hair growth entry in the assay on hair growth is “about 100%”.

As for `CC(C)(C)NC(=O)[C@H]1CC[C@H]2[C@@H]3CC[C@H]4NC(=O)C=C[C@]4(C)[C@H]3CC[C@]12C` [finasteride], the “men who noted an improvement” value in the assay on androgenic alopecia is on record as 68%.
